Drawing on patent publication US20220072036A1, “METHOD FOR INHIBITING CORONAVIRUS AND METHOD FOR TREATING DISEASE ASSOCIATED WITH CORONAVIRUS INFECTION” (AMAZING FORTUNE CO., LTD., priority 2020, published 2022), this text covers Inhibition percentage, Km and kcat for three compounds.

Data set [1] concerns the target SARS-CoV-2 papain-like protease (PLPro) (Severe acute respiratory syndrome coronavirus 2, UniProt P0DTD1). It counts as biochemical. The following applies: SARS-CoV2 PLPro 0.9 μM, 30 min preincubation, FG6-pNA substrate, 30° C., 300 seconds; inhibitor concentrations per Table 1; mean±standard deviation.
Data set [2] relates to CC(C)C[C@H](NC(=O)[C@H](CCCNC(=N)N)NC(=O)[C@@H](N)Cc1ccccc1)C(=O)N[C@@H](CCCCN)C(=O)NCC(=O)NCC(=O)Nc1ccc([N+](=O)[O-])cc1. The experiment in a line: purified protein, by the assay type. The settings on record: pH 7.4; 30.0 °C.

In data set [1], `[Mg+2]` [Comparative Group 2] returned an Inhibition percentage of 13.99 ± 0.11%.
The same measure, in the same setting: in the case of `[Zn+2]` [Comparative Group 3] it was 19.83 ± 0.88%.
Turning to “SARS-CoV-2 PLpro (Severe acute respiratory syndrome coronavirus 2)”, in data set [2], the Km worked out at 2500 ± 30 µM and the kcat amounted to 0.85 ± 0.01 s⁻¹.

Usually Km stands for the substrate concentration at which the rate is half of its maximum. One may read the kcat as the number of substrate molecules converted per active site and unit of time at saturation.
